Experimental data reported in patent publication US9346801B2, “Substituted 7-oxo-pyrido[2,3-d]pyrimidines and methods of use” (AMGEN INC., priority 2013, dated 2016).

Columns and labels:
Type in all cases: cell-based
[1] = tested on: H1975 (T790M/L858R) NSCLC cells; assay: Inhibition of proliferation of NSCLC cell lines, H1975; details: Cell Titer Glow; for IC50: Homo sapiens, NCI-H1975, 72 h, read-out: H1975 cell killing IC50; for H1975 cell killing IC50: 72 h
Description: (§1) NSCLC cell lines H1975 (T790M/L858R), HCC827 (Δ746-750) and A549 (wild-type) were seeded in 96-well tissue culture plates (Corning, Lowell, Mass.) at 5,000 cells/well (H1975) and 4,000 cells/well (HCC827 and A549) in 95 μL of cell growth media overnight. Compounds starting at 10 mM concentration and diluted 8 times (4-fold dilutions) in DMSO were diluted 50 fold in RPM1 then 5 μL was added to cells. After 72 h, viable cell signal was quantified using Cell Titer Glow (Promega, Madison, Wis.) and a SpectraMax M5 plate reader (Molecular Devices, Sunnyvale, Calif.) per manufacturer's instructions. Final DMSO concentration in test and control wells was 0.1%. No DSMO effect was noted on cell growth.

[2] = tested on: HCC827 (Δ746-750) NSCLC cells; assay: Inhibition of proliferation of NSCLC cell lines, HCC827; details: Homo sapiens, 72 h, Cell Titer Glow, read-out: HCC827 cell killing IC50
Description: as §1

[3] = target: T1, T790M mutant EGFR phosphorylation in H1975 (T790M/L858R) NSCLC cells (Homo sapiens, UniProt P00533, L858R/T790M); assay: Detection of pEGFR on NSCLC cell lines (MSD multiplex), H1975; details: serum starved, 60 min compound
T1 construct: endogenous in cells; host or cells: H1975 NSCLC cells
Description: (§2) The effects of compounds on the phosphorylation of wild-type, T790M mutant, and Exon19 deletion (A746-750) EGFR were monitored using Mesoscalc™ multiplex assays (MSD), in which levels of phosphorylated EGFR protein were determined using total […] levels as a control. H1975 (T790M/L858R), HCC827 (Δ746-750) and A549 (wild-type EGFR) NSCLC cells were plated on 6-well tissue culture plates, serum starved for overnight and treated with 9 concentrations of compound starting at 2 μM (5-fold dilutions) for 60 min. Wild-type A549 cells were challenged with 100 ng/ml EGF for 15 min before collection. Cells were lysed according to manufacturer's instructions and lysates processed for analysis in the […]) multiplex plate reader.

[4] = target: T2, Exon19 deletion (Δ746-750) EGFR phosphorylation in HCC827 NSCLC cells (Homo sapiens, UniProt P00533, DEL746-750); assay: Detection of pEGFR on NSCLC cell lines (MSD multiplex), HCC827; details: HCC827 (Δ746-750) cells, serum starved, 60 min compound
T2 construct: endogenous in cells; host or cells: HCC827 NSCLC cells
Description: as §2

[5] = target: T3, wild-type EGFR phosphorylation in A549 NSCLC cells (Homo sapiens, UniProt P00533); assay: Detection of pEGFR on NSCLC cell lines (MSD multiplex), A549; details: 60 min compound, 100 ng/ml EGF for 15 min
T3 construct: Wild-type A549 cells were challenged with 100 ng/ml EGF for 15 min before collection; endogenous in cells; host or cells: A549 NSCLC cells
Description: as §2

T3 sequence (P00533 25-1210): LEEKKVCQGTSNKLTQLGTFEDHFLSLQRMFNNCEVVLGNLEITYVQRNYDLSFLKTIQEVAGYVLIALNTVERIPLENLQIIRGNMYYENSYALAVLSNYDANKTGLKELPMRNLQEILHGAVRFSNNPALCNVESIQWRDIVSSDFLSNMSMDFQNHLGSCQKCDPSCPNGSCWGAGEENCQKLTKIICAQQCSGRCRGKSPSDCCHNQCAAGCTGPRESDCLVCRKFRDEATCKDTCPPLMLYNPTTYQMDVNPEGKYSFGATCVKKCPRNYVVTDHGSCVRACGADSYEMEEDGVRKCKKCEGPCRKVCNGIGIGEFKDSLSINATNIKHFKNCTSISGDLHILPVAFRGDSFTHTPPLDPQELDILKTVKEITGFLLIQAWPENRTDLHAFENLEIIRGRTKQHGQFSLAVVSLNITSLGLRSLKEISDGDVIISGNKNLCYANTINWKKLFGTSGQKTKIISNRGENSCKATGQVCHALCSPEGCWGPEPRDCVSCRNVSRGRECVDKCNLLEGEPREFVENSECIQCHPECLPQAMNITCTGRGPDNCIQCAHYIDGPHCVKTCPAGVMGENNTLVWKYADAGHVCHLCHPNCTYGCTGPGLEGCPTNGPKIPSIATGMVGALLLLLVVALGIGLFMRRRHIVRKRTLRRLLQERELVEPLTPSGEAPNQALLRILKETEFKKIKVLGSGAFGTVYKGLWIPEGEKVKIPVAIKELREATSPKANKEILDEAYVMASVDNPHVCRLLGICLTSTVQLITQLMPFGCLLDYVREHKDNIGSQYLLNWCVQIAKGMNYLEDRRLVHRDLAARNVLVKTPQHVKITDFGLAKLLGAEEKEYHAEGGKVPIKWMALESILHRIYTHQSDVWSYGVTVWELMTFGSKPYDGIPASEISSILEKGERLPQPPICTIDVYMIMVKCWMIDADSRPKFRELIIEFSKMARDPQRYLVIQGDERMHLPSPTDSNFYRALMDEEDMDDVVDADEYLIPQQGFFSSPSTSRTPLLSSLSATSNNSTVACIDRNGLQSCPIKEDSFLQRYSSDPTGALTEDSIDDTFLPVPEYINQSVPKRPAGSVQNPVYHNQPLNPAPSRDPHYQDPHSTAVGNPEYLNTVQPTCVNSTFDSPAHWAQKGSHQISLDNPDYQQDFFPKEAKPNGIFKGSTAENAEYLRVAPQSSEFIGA
T2 sequence (P00533 with tags, fused parts or gaps DEL746-750): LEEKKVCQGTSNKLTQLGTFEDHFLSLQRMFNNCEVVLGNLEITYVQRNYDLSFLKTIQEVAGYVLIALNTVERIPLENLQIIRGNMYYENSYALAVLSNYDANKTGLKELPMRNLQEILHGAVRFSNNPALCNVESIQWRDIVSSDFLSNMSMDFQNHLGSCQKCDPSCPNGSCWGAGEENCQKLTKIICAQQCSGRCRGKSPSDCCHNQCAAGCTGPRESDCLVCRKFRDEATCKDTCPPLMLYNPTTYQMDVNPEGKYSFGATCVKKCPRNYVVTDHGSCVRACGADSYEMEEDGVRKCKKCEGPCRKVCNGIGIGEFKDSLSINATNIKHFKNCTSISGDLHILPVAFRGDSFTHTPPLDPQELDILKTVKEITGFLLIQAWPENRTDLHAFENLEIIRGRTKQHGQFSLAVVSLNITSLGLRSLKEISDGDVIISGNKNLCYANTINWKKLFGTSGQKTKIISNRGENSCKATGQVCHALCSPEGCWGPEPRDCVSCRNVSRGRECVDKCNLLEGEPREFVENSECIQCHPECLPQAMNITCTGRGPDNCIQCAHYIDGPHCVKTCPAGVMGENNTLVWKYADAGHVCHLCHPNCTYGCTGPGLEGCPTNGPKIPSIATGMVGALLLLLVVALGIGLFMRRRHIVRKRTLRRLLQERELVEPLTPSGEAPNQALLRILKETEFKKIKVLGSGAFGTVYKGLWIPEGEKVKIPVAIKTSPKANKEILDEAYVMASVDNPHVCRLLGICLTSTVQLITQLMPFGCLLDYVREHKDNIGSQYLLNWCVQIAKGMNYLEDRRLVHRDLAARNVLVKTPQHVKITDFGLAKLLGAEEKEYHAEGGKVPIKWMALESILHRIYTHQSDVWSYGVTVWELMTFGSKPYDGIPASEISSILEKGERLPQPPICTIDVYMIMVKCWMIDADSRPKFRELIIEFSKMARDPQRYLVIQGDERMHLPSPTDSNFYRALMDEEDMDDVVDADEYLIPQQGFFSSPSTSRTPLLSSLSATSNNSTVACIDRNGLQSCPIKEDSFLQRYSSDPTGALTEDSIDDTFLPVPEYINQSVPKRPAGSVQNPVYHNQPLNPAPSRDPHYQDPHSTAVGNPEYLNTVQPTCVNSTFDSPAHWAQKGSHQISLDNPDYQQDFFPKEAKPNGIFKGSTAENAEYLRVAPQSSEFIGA
T1 sequence (P00533 25-1210 T790M/L858R): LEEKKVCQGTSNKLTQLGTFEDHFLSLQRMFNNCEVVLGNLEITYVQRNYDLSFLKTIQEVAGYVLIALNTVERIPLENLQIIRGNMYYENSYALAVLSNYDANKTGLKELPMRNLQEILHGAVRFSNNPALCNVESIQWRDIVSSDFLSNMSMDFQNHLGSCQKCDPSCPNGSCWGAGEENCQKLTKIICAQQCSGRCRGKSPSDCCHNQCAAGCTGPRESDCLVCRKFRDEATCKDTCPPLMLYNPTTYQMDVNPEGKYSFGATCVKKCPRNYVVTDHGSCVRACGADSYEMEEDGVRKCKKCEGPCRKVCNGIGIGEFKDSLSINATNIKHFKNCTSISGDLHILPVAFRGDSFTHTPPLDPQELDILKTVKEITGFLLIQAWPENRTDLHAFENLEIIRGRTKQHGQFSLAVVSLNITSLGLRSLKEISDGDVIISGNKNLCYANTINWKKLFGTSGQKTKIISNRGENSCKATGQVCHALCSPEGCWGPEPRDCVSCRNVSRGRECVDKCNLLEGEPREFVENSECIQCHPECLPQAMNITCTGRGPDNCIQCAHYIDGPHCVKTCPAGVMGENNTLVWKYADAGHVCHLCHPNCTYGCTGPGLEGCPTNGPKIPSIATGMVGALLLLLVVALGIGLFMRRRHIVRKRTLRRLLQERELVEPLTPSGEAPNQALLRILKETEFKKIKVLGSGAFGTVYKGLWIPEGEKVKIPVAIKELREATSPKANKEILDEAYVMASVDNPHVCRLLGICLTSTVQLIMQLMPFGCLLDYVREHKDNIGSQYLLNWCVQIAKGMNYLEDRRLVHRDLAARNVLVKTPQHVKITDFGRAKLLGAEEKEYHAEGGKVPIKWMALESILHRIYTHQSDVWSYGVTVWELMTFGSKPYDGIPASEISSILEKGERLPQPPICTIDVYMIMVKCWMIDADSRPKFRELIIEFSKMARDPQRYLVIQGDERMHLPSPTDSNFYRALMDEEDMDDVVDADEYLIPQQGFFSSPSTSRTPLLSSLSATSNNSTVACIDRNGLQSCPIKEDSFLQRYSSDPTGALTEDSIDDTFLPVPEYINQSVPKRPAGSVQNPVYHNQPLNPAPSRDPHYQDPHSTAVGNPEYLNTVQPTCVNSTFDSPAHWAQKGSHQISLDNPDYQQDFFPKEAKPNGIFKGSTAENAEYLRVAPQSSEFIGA

C=CC(=O)Nc1cccc(-n2c(=O)ccc3cnc(Nc4ccc(N5CCN(C)CC5)cc4)nc32)c1 [Example 4, N-(3-(2-((4-(4-methyl-1-piperazinyl)phenyl)amino)-7-oxopyrido[2,3-d]pyrimidin-8(7H)-yl)phenyl)-2-propenamide]
IC50 [1]: 0.7 nM | IC50 [2]: 1 nM

C=CC(=O)Nc1cccc(-n2c(=O)cc(C)c3cnc(Nc4ccc(N5CCN(C)CC5)cc4)nc32)c1 [Example 17, N-(3-(5-methyl-2-((4-(4-methylpiperazin-1-yl)phenyl)amino)-7-oxopyrido[2,3-d]pyrimidin-8(7H)-yl)phenyl)acrylamide]
IC50 [1]: 3.6 nM | IC50 [2]: 7.3 nM

COc1cc(N2CCN(C)CC2)ccc1Nc1ncc2ccc(=O)n(-c3cccc(NC(=O)CCN(C)C)c3)c2n1 [Example 13, 3-(dimethylamino)-N-(3-(2-((2-methoxy-4-(4-methylpiperazin-1-yl)phenyl)amino)-7-oxopyrido[2,3-d]pyrimidin-8(7H)-yl)phenyl)propanamide]
IC50 [1]: 128 nM | IC50 [2]: 76 nM

C=CC(=O)Nc1cccc(-n2c(=O)ccc3cnc(Nc4ccc(N5CCN(C)CC5)cc4Cl)nc32)c1 [Example 15, N-(3-(2-((2-chloro-4-(4-methyl-1-piperazinyl)phenyl)amino)-7-oxopyrido[2,3-d]pyrimidin-8(7H)-yl)phenyl)-2-propenamide]
IC50 [1]: 11 nM | IC50 [2]: 3.5 nM

COc1cc(N2CCN(C)CC2)ccc1Nc1ncc2ccc(=O)n(-c3cccc(NC(=O)/C=C/CN(C)C)c3)c2n1 [Example 9, (2E)-4-(dimethylamino)-N-(3-(2-((2-methoxy-4-(4-methyl-1-piperazinyl)phenyl)amino)-7-oxopyrido[2,3-d]pyrimidin-8(7H)-yl)phenyl)-2-butenamide]
IC50 [1]: 361 nM | IC50 [2]: 53 nM

C=CC(=O)Nc1cccc(-n2c(=O)cc(C)c3cnc(Nc4ccc(NC5CN(CCF)C5)cc4OC)nc32)c1 [Example 16, N-(3-(2-((4-((1-(2-fluoroethyl)-3-azetidinyl)amino)-2-methoxyphenyl)amino)-5-methyl-7-oxopyrido[2,3-d]pyrimidin-8(7H)-yl)phenyl)-2-propenamide]
IC50 [1]: 22 nM | IC50 [2]: 18 nM

C=CC(=O)Nc1cccc(-n2c(=O)ccc3cnc(Nc4ccc(N5CCN(C)CC5)cc4OC)nc32)c1 [Example 1, N-(3-(2-((2-methoxy-4-(4-methyl-1-piperazinyl)phenyl)amino)-7-oxopyrido[2,3-d]pyrimidin-8(7H)-yl)phenyl)-2-propenamide]
IC50 [3]: 3.2 nM | IC50 [4]: 3.4 nM | IC50 [5]: 76 nM | IC50 [1]: 8 nM | IC50 [2]: 4 nM

C=CC(=O)Nc1cccc(-n2c(=O)ccc3cnc(Nc4ccc(N5CCOCC5)cc4OC)nc32)c1 [Example 2, N-(3-(2-((2-methoxy-4-(4-morpholinyl)phenyl)amino)-7-oxopyrido[2,3-d]pyrimidin-8(7H)-yl)phenyl)-2-propenamide]
H1975 cell killing IC50 [1]: undefined

C/C=C/C(=O)Nc1cccc(-n2c(=O)ccc3cnc(Nc4ccc(N5CCN(C)CC5)cc4OC)nc32)c1 [Example 3, (2E)-N-(3-(2-((2-methoxy-4-(4-methyl-1-piperazinyl)phenyl)amino)-7-oxopyrido[2,3-d]pyrimidin-8(7H)-yl)phenyl)-2-butenamide]
IC50 [1]: 326 nM | IC50 [2]: 126 nM

C=CC(=O)Nc1cccc(-n2c(=O)ccc3cnc(Nc4ccc(NC5CN(C(C)=O)C5)cc4OC)nc32)c1 [Example 14, N-(3-(2-((4-((1-acetylazetidin-3-yl)amino)-2-methoxyphenyl)amino)-7-oxopyrido[2,3-d]pyrimidin-8(7H)-yl)phenyl)acrylamide]
IC50 [1]: 190 nM | IC50 [2]: 24 nM

C=CC(=O)Nc1cccc(-n2c(=O)cc(C)c3cnc(Nc4ccc(N5CCN(C)CC5)cc4OC)nc32)c1 [Example 5]
IC50 [3]: 2.8 nM | IC50 [4]: 8 nM | IC50 [5]: 323 nM | IC50 [1]: 4 nM | IC50 [2]: 10 nM

C=CC(=O)Nc1ccc(F)c(-n2c(=O)ccc3cnc(Nc4ccc(N5CCN(C)CC5)cc4OC)nc32)c1 [Example 10, N-(4-fluoro-3-(2-((2-methoxy-4-(4-methyl-1-piperazinyl)phenyl)amino)-7-oxopyrido[2,3]pyrimidin-8(7H)-yl)phenyl)-2-propenamide]
IC50 [3]: 2 nM | IC50 [5]: 84 nM | IC50 [1]: 4 nM | IC50 [2]: 4 nM

C=CC(=O)Nc1cccc(-n2c(=O)c(CC)cc3cnc(Nc4ccc(N5CCN(C)CC5)cc4OC)nc32)c1 [Example 6, N-(3-(6-ethyl-2-((2-methoxy-4-(4-methyl-1-piperazinyl)phenyl)amino)-7-oxopyrido[2,3-d]pyrimidin-8(7H)-yl)phenyl)-2-propenamide]
IC50 [3]: 4.3 nM | IC50 [5]: 8.2 nM | IC50 [1]: 12 nM

COc1cc(N2CCN(C)CC2)ccc1Nc1ncc2ccc(=O)n(-c3cccc(NC(=O)CCl)c3)c2n1 [Example 12, 2-chloro-N-(3-(2-((2-methoxy-4-(4-methyl-1-piperazinyl)phenyl)amino)-7-oxopyrido[2,3-d]pyrimidin-8(7H)-yl)phenyl)acetamide]
IC50 [1]: 680 nM | IC50 [2]: 18 nM

C=CC(=O)Nc1cccc(-n2c(=O)cc(C)c3cnc(Nc4ccc(N5CCOCC5)cc4OC)nc32)c1 [Example 7, N-(3-(2-((2-methoxy-4-(4-morpholinyl)phenyl)amino)-5-methyl-7-oxopyrido[2,3-d]pyrimidin-8(7H)-yl)phenyl)-2-propenamide]
H1975 cell killing IC50 [1]: undefined | IC50 [2]: 2.81 nM

C=CC(=O)Nc1cccc(-n2c(=O)ccc3cnc(Nc4ccc(NC5CN(CCF)C5)cc4OC)nc32)c1 [Example 11, N-(3-(2-((4-((1-(2-fluoroethyl)-3-azetidinyl)amino)-2-methoxyphenyl)amino)-7-oxopyrido[2,3-d]pyrimidin-8(7H)-yl)phenyl)-2-propenamide]
IC50 [3]: 6 nM | IC50 [4]: 5 nM | IC50 [5]: 155 nM | IC50 [1]: 9.6 nM | IC50 [2]: 3 nM

C=CC(=O)Nc1cccc(-n2c(=O)ccc3cnc(Nc4cnc(N5CCN(C)CC5)cc4OC)nc32)c1 [Example 8, N-(3-(2-((4-methoxy-6-(4-methyl-1-piperazinyl)-3-pyridinyl)amino)-7-oxopyrido[2,3-d]pyrimidin-8(7H)-yl)phenyl)-2-propenamide]
IC50 [1]: 92 nM | IC50 [2]: 21 nM
